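Grown in 96-well plates, cells were treated for 48 hours with each compound at five concentrations. Insufficient inhibition: endpoint recorded as highest concentration tested. Abbreviation: GI50, concentration required for 50% inhibition of growth.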 The source made the active and inactive calls. Cut-off read from the data, not from the text of the source: active = GI50 up to about 1.1 µM and inactive = higher.
Legend:
Experiment in all cases: growth of human tumour cells (NCI), 48 h
[1] = test system: RPMI-8226
[2] = test system: CAKI-1
[3] = test system: DU-145
[4] = test system: COLO 205
[5] = test system: KM12
[6] = test system: HCT-15
[7] = test system: TK-10
[8] = test system: OVCAR-3
[9] = test system: SF-268
[10] = test system: SW-620
[11] = test system: SK-MEL-5
[12] = test system: Hs-578T
[13] = test system: MDA-N
[14] = test system: NCI-H522
[15] = test system: HL-60
[16] = test system: IGROV-1
[17] = test system: SR
[18] = test system: SN12C
[19] = test system: RXF 393

SMILES | GI50 [1] | GI50 [2] | GI50 [3] | GI50 [4] | GI50 [5] | GI50 [6] | GI50 [7] | GI50 [8] | GI50 [9] | GI50 [10] | GI50 [11] | GI50 [12] | GI50 [13] | GI50 [14] | GI50 [15] | GI50 [16] | GI50 [17] | GI50 [18] | GI50 [19]
Cc1c(-c2ccccc2)[nH]c2cn[nH]c(=O)c12 | 74 µM (inactive) | > 100 µM (inactive) | > 100 µM (inactive) | > 100 µM (inactive) | 83.2 µM (inactive) | 55.3 µM | > 100 µM (inactive) | 39.6 µM (inactive) | > 100 µM (inactive) | > 100 µM (inactive) | 67.9 µM (inactive) | 74.6 µM (inactive) | > 100 µM (inactive) | 86.1 µM (inactive) | 10.7 µM (inactive) | > 100 µM (inactive) | 88.7 µM (inactive) | – | –
CCOC(=O)c1ccc(C(=O)/C(C#N)=C2\CCCN2)[nH]1 | > 100 µM (inactive) | > 100 µM (inactive) | > 100 µM (inactive) | > 100 µM (inactive) | 55 µM (inactive) | > 100 µM | – | 82.2 µM (inactive) | > 100 µM (inactive) | 79.4 µM (inactive) | 41.9 µM (inactive) | > 100 µM (inactive) | 30.1 µM (inactive) | – | 66.5 µM (inactive) | > 100 µM (inactive) | 19.6 µM (inactive) | > 100 µM (inactive) | 14.8 µM (inactive)
CCC1(O)CC(OC2CC(N(C)C)C(OC3CC(O)C(OC4OC(C)C(=O)C=C4N)C(C)O3)C(C)O2)c2c(cc3c(c2O)C(=O)c2c(O)cccc2C3=O)C1C(=O)OC (stereo unspecified) | 0.00153 µM (active) | 0.00604 µM (active) | 0.00637 µM (active) | 0.00429 µM (active) | 0.00525 µM (active) | 0.241 µM | 0.06 µM (active) | 0.129 µM (active) | 0.199 µM (active) | < 0.001 µM (active) | 0.00469 µM (active) | 0.12 µM (active) | 0.00682 µM (active) | 0.0355 µM (active) | 0.0177 µM (active) | 0.00302 µM (active) | 0.00625 µM (active) | 0.158 µM (active) | –
O=C(CCN1CCOCC1)Nc1ccc2sc3ccccc3c(=O)c2n1 | 28 µM (inactive) | 23.6 µM (inactive) | 47 µM (inactive) | 25 µM (inactive) | 50.4 µM (inactive) | 33.9 µM | 37.4 µM (inactive) | 47.9 µM (inactive) | 52.2 µM (inactive) | 27.4 µM (inactive) | 27.1 µM (inactive) | 36.4 µM (inactive) | 23.3 µM (inactive) | 13.2 µM (inactive) | > 100 µM (inactive) | 30.1 µM (inactive) | 44.3 µM (inactive) | 35 µM (inactive) | –
C=C(C)C1CC=C(C)C(=O)C1 (stereo unspecified) [CARVONE] | > 100 µM (inactive) | > 100 µM (inactive) | > 100 µM (inactive) | > 100 µM (inactive) | > 100 µM (inactive) | > 100 µM | > 100 µM (inactive) | > 100 µM (inactive) | > 100 µM (inactive) | > 100 µM (inactive) | > 100 µM (inactive) | > 100 µM (inactive) | > 100 µM (inactive) | > 100 µM (inactive) | > 100 µM (inactive) | > 100 µM (inactive) | > 100 µM (inactive) | > 100 µM (inactive) | –
Nc1ccc2c(c1)S(=O)(=O)c1cc(O)ccc1O2 | – | 45.2 µM (inactive) | > 100 µM (inactive) | > 100 µM (inactive) | > 100 µM (inactive) | > 100 µM | > 100 µM (inactive) | > 100 µM (inactive) | > 100 µM (inactive) | > 100 µM (inactive) | > 100 µM (inactive) | > 100 µM (inactive) | > 100 µM (inactive) | > 100 µM (inactive) | > 100 µM (inactive) | > 100 µM (inactive) | 39.7 µM (inactive) | > 100 µM (inactive) | 48.3 µM (inactive)
C[C@@H](c1ccccc1)N1CO[C@@]2(C#Cc3ccc4c(c3)OCO4)CCC[C@@H]12 | 11.2 µM (inactive) | 16.3 µM (inactive) | 16.1 µM (inactive) | 15.8 µM (inactive) | 15.7 µM (inactive) | 12.6 µM | 15.5 µM (inactive) | – | – | – | 13.1 µM (inactive) | 15.9 µM (inactive) | 17.3 µM (inactive) | – | 7.94 µM (inactive) | 10.7 µM (inactive) | 8.67 µM (inactive) | 17.1 µM (inactive) | 11.6 µM (inactive)
c1ccc(/C(=N\Nc2nc3ccccc3[nH]2)c2ccccn2)cc1 | 0.242 µM (active) | 0.425 µM (active) | 2.13 µM (inactive) | < 0.0207 µM (active) | 0.735 µM (active) | 0.277 µM | 0.314 µM (active) | 0.169 µM (active) | 0.443 µM (active) | 0.204 µM (active) | 0.427 µM (active) | 5.5 µM (inactive) | 0.762 µM (active) | 0.25 µM (active) | – | 0.262 µM (active) | 0.348 µM (active) | 0.415 µM (active) | 0.716 µM (active)
CCN(CC)c1nc(=O)c(C(=O)C(C)(C)C)c(C(C)(C)C)o1 | > 100 µM (inactive) | > 100 µM (inactive) | > 100 µM (inactive) | > 100 µM (inactive) | > 100 µM (inactive) | > 100 µM | > 100 µM (inactive) | – | > 100 µM (inactive) | > 100 µM (inactive) | > 100 µM (inactive) | > 100 µM (inactive) | > 100 µM (inactive) | > 100 µM (inactive) | > 100 µM (inactive) | > 100 µM (inactive) | > 100 µM (inactive) | > 100 µM (inactive) | > 100 µM (inactive)
C#CCn1c(=O)ccn(/C(=C/C(=O)OCC)C(=O)OCC)c1=O | 2.9 µM (inactive) | 1.58 µM (inactive) | 13.8 µM (inactive) | 1.81 µM (inactive) | 17.4 µM (inactive) | 1.06 µM | 1.77 µM (inactive) | 6.35 µM (inactive) | 13.1 µM (inactive) | 1.86 µM (inactive) | 14.5 µM (inactive) | 18.7 µM (inactive) | 17.2 µM (inactive) | – | 3.44 µM (inactive) | 4.21 µM (inactive) | 3.45 µM (inactive) | 9.08 µM (inactive) | 1.36 µM (inactive)
CN(C)CCOc1ccc(I)cc1Cc1ccccc1 | 6.34 µM (inactive) | – | 17.1 µM (inactive) | 11.9 µM (inactive) | 13.7 µM (inactive) | 12.2 µM | 12.7 µM (inactive) | 13.2 µM (inactive) | 13.2 µM (inactive) | 14.2 µM (inactive) | 3.61 µM (inactive) | 11.1 µM (inactive) | 5.31 µM (inactive) | 11.9 µM (inactive) | 4.74 µM (inactive) | 4.6 µM (inactive) | 2.65 µM (inactive) | 12.1 µM (inactive) | 15 µM (inactive)
CC(C)(C)NC(=O)[C@H]1CC[C@H]2[C@@H]3CC=C4NC(=O)CC[C@]4(C)[C@H]3CC[C@]12C | > 100 µM (inactive) | – | > 100 µM (inactive) | > 100 µM (inactive) | > 100 µM (inactive) | > 100 µM | 46.8 µM (inactive) | > 100 µM (inactive) | 54.6 µM (inactive) | > 100 µM (inactive) | > 100 µM (inactive) | 50.9 µM (inactive) | > 100 µM (inactive) | 36.4 µM (inactive) | > 100 µM (inactive) | > 100 µM (inactive) | > 100 µM (inactive) | > 100 µM (inactive) | > 100 µM (inactive)
Cc1ccc(/N=N/C(=N\c2ccc(Cl)cc2)c2ccc(N(CCC#N)CCC#N)cc2)cc1 | > 100 µM (inactive) | > 100 µM (inactive) | 37.7 µM (inactive) | 17.4 µM (inactive) | 19.1 µM (inactive) | 14.2 µM | 21.7 µM (inactive) | 33.4 µM (inactive) | 48.1 µM (inactive) | 58.9 µM (inactive) | 2.63 µM (inactive) | 33.7 µM (inactive) | 55.6 µM (inactive) | 19.4 µM (inactive) | – | 30.3 µM (inactive) | 22 µM (inactive) | 40.9 µM (inactive) | 36.8 µM (inactive)
CCOC(=O)c1nc2ccccc2nc1Nc1cc(OC)c(OC)c(OC)c1 | > 100 µM (inactive) | > 100 µM (inactive) | > 100 µM (inactive) | > 100 µM (inactive) | > 100 µM (inactive) | > 100 µM | > 10 µM (inactive) | > 100 µM (inactive) | > 100 µM (inactive) | – | > 100 µM (inactive) | 92.9 µM (inactive) | > 100 µM (inactive) | > 100 µM (inactive) | > 100 µM (inactive) | > 100 µM (inactive) | > 100 µM (inactive) | > 100 µM (inactive) | –
CC(=O)OCC(C)(COC(C)=O)N1C(=O)C2C3c4ccccc4C(c4ccccc43)C2C1=O (stereo unspecified) | > 100 µM (inactive) | > 100 µM (inactive) | > 100 µM (inactive) | > 100 µM (inactive) | > 100 µM (inactive) | > 100 µM | > 100 µM (inactive) | > 100 µM (inactive) | > 100 µM (inactive) | > 100 µM (inactive) | > 100 µM (inactive) | > 100 µM (inactive) | 28.1 µM (inactive) | – | > 100 µM (inactive) | > 100 µM (inactive) | > 100 µM (inactive) | – | 35.6 µM (inactive)
Clc1cc(-c2ccccc2)nc(Nc2nc3ccccc3[nH]2)n1 | > 100 µM (inactive) | 2.14 µM (inactive) | > 100 µM (inactive) | 13.8 µM (inactive) | 40.2 µM (inactive) | 6.95 µM | > 100 µM (inactive) | – | 23.6 µM (inactive) | 6.01 µM (inactive) | 38.5 µM (inactive) | 27.3 µM (inactive) | 18.8 µM (inactive) | 11.4 µM (inactive) | 0.832 µM (active) | 14.7 µM (inactive) | 2.84 µM (inactive) | 28.2 µM (inactive) | 4.27 µM (inactive)
